Data on 19 compounds can be found in US11702422B2, “Imidazopyridazines as modulators of IL-17” (Janssen Pharmaceutica NV, priority 2020, dated 2023).

Assay [1] has as its system IL-17A-induced G-CSF production in human normal keratinocyte (NHK). Briefly: NHK Assay: IL-17A-induced G-CSF production in human normal keratinocytes. It counts as cell-based. The settings on record: Homo sapiens, Keratinocyte, 24 h, adult normal human keratinocytes, IL-17A 5 ng/mL, simple average if tested more than once. A digest of the protocol:
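Adult NHK, 3000-4000 cells/well; rhIL-17A + titrated cpd preincubated 1 h rt, then onto cells. Final: IL-17A 5 ng/mL, DMSO 0.2%, 5% FBS. 24 h, 37° C. G-CSF in supernatant by HTRF vs standard curve; IC50. Viability by CellTiter-Glo vs DMSO.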

In assay [2] the target is IL-17A(FLAG-Tagged): IL-17RA(His-Tagged) (Homo sapiens, UniProt Q16552, K93Q). The experiment in a line: IL-17A(FLAG-Tagged): IL-17RA(His-Tagged) Binding Disruption Eu-HTRF Assay. The settings on record: IL-17A/IL-17RA binding disruption, simple average if tested more than once. A digest of the protocol:
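IC50 comes from a one-site competition fit of the HTRF 665/620 nm ratio. Compound dilutions (2-fold, 22 points) were held 1 h rt with FLAG-tagged IL-17A dimer, then His-tagged IL-17RA plus Eu-cryptate anti-FLAG and D2 anti-His antibodies were added for 2 h rt.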
In general terms: In TR-FRET formats the signal depends on donor and acceptor labels being close together.

Bounds are passed on as bounds.

Chain of UniProt Q16552 (Q16552 with tags, fused parts or gaps K93Q): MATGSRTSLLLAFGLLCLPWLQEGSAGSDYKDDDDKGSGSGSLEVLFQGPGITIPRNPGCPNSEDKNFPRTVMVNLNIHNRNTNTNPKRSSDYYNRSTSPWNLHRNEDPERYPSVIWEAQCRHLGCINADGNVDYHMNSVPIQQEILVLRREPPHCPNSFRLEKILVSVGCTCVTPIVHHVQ

Consider `O=C(CCC(F)F)N[C@@H](c1cnn2cc([C@@H](NC(=O)c3conc3OCC(F)F)C3CCC(F)(F)CC3)nc2c1)C1CC1` [Example 286, N—((S)-(7-((R)-Cyclopropyl(4,4-difluorobutanamido)methyl)imidazo[1,2-b]pyridazin-2-yl)(4,4-difluorocyclohexyl)methyl)-3-(2,2-difluoroethoxy)isoxazole-4-carboxamide], for which the figures for the IC50 in assay [1] and in assay [2] were 7500 nM and 310 nM, respectively.
Regarding `O=C(CCC(F)F)N[C@@H](c1cnn2cc([C@@H](NC(=O)c3conc3COC(F)F)C3CCC(F)(F)CC3)nc2c1)C1CC1` [Example 287, N—((S)-(7-((R)-Cyclopropyl(4,4-difluorobutanamido)methyl)imidazo[1,2-b]pyridazin-2-yl)(4,4-difluorocyclohexyl)methyl)-3-((difluoromethoxy)methyl)isoxazole-4-carboxamide], the values for the IC50 in assay [1] and in assay [2] were 410 nM and 140 nM, respectively.
In the case of `O=C(CCC(F)F)N[C@@H](c1cnn2cc([C@@H](NC(=O)c3nonc3C3CC3)C3CCC(F)(F)CC3)nc2c1)C1CC1` [Example 288, 4-Cyclopropyl-N—((S)-(7-((R)-cyclopropyl(4,4-difluorobutanamido)methyl)imidazo[1,2-b]pyridazin-2-yl)(4,4-difluorocyclohexyl)methyl)-1,2,5-oxadiazole-3-carboxamide], the IC50 was 200 nM in assay [1] and 71 nM in assay [2].
For `O=C(CC1CC(F)(F)C1)N[C@@H](c1cnn2cc([C@@H](NC(=O)c3nonc3C3CC3)C3CCC(F)(F)CC3)nc2c1)C1CC1` [Example 289, 4-Cyclopropyl-N—((S)-(7-((R)-cyclopropyl(2-(3,3-difluorocyclobutyl)acetamido)methyl)imidazo[1,2-b]pyridazin-2-yl)(4,4-difluorocyclohexyl)methyl)-1,2,5-oxadiazole-3-carboxamide] the same measures were 23 nM and 37 nM.
As for `Cc1nonc1C(=O)N[C@H](c1cn2ncc([C@H](NC(=O)CCC3CC3(F)F)C3CC3)cc2n1)C1CCC(F)(F)CC1` (stereo partly drawn) [Example 290, N-((1S)-(7-((1R)-Cyclopropyl(3-(2,2-difluorocyclopropyl)propanamido)methyl)imidazo[1,2-b]pyridazin-2-yl)(4,4-difluorocyclohexyl)methyl)-4-methyl-1,2,5-oxadiazole-3-carboxamide], the IC50 in assay [1] was found to be 220 nM; in assay [2] it was 83 nM.
For the compound `Cc1nonc1C(=O)N[C@H](c1cn2ncc([C@H](NC(=O)CC3CCCC3(F)F)C3CC3)cc2n1)C1CCC(F)(F)CC1` (stereo partly drawn) [Example 291, N-((1S)-(7-((1R)-Cyclopropyl(2-(2,2-difluorocyclopentyl)acetamido)methyl)imidazo[1,2-b]pyridazin-2-yl)(4,4-difluorocyclohexyl)methyl)-4-methyl-1,2,5-oxadiazole-3-carboxamide], the figures for the IC50 in assay [1] and in assay [2] were 4000 nM and 370 nM, respectively.
Regarding `CC(C)Oc1nocc1C(=O)N[C@H](c1cn2ncc([C@H](NC(=O)CC3CC(F)(F)C3)C3CC3)cc2n1)C1CCC(F)(F)CC1` [Example 292, N—((S)-(7-((R)-Cyclopropyl(2-(3,3-difluorocyclobutyl)acetamido)methyl)imidazo[1,2-b]pyridazin-2-yl)(4,4-difluorocyclohexyl)methyl)-3-isopropoxyisoxazole-4-carboxamide], the IC50 was found to be 870 nM in assay [1] and 220 nM in assay [2].
With `O=C(CC1CC(F)(F)C1)N[C@@H](c1cnn2cc([C@@H](NC(=O)c3conc3OCC(F)F)C3CCC(F)(F)CC3)nc2c1)C1CC1` [Example 293, N—((S)-(7-((R)-Cyclopropyl(2-(3,3-difluorocyclobutyl)acetamido)methyl)imidazo[1,2-b]pyridazin-2-yl)(4,4-difluorocyclohexyl)methyl)-3-(2,2-difluoroethoxy)isoxazole-4-carboxamide], the IC50 is 540 nM in assay [1] and 160 nM in assay [2].
Take `O=C(CC1CC(F)(F)C1)N[C@@H](c1cnn2cc([C@@H](NC(=O)c3conc3COC(F)F)C3CCC(F)(F)CC3)nc2c1)C1CC1` [Example 294, N—((S)-(7-((R)-Cyclopropyl(2-(3,3-difluorocyclobutyl)acetamido)methyl)imidazo[1,2-b]pyridazin-2-yl)(4,4-difluorocyclohexyl)methyl)-3-((difluoromethoxy)methyl)isoxazole-4-carboxamide]: the IC50 is 38 nM in assay [1] and 86 nM in assay [2].
For the compound `O=C(CC12CC(F)(C1)C2)N[C@@H](c1cnn2cc([C@@H](NC(=O)c3conc3OCC(F)F)C3CCC(F)(F)CC3)nc2c1)C1CC1` [Example 295, N—((S)-(7-((R)-Cyclopropyl(2-(3-fluorobicyclo[1.1.1]pentan-1-yl)acetamido)methyl)imidazo[1,2-b]pyridazin-2-yl)(4,4-difluorocyclohexyl)methyl)-3-(2,2-difluoroethoxy)isoxazole-4-carboxamide], the IC50 stood at 710 nM in assay [1] and 150 nM in assay [2].
Take `O=C(CC12CC(F)(C1)C2)N[C@@H](c1cnn2cc([C@@H](NC(=O)c3nonc3C3CC3)C3CCC(F)(F)CC3)nc2c1)C1CC1` [Example 296, 4-Cyclopropyl-N—((S)-(7-((R)-cyclopropyl(2-(3-fluorobicyclo[1.1.1]pentan-1-yl)acetamido)methyl)imidazo[1,2-b]pyridazin-2-yl)(4,4-difluorocyclohexyl)methyl)-1,2,5-oxadiazole-3-carboxamide]: the IC50 came to 50 nM in assay [1] and 22 nM in assay [2].
For `O=C(CC1(C(F)(F)F)CC1)N[C@@H](c1cnn2cc([C@@H](NC(=O)c3nonc3C3CC3)C3CCC(F)(F)CC3)nc2c1)C1CC1` [Example 297, 4-Cyclopropyl-N—((S)-(7-((R)-cyclopropyl(2-(1-(trifluoromethyl)cyclopropyl)acetamido)methyl)imidazo[1,2-b]pyridazin-2-yl)(4,4-difluorocyclohexyl)methyl)-1,2,5-oxadiazole-3-carboxamide] the same measures were 87 nM and 31 nM.
On to `CC(C)Oc1nocc1C(=O)N[C@H](c1cn2ncc([C@H](NC(=O)CCC(F)F)C3CC3)cc2n1)C1CCC(F)(F)CC1` [Example 302, N—((S)-(7-((R)-Cyclopropyl(4,4-difluorobutanamido)methyl)imidazo[1,2-b]pyridazin-2-yl)(4,4-difluorocyclohexyl)methyl)-3-isopropoxyisoxazole-4-carboxamide], for which the IC50 is above 20000 nM in assay [1] and 1200 nM in assay [2].
`CC(C)n1nccc1C(=O)N[C@H](c1cn2ncc([C@H](NC(=O)COCC(F)(F)F)C3CC3)cc2n1)C1CCC(F)(F)CC1` [Example 303, N—((S)-(7-((R)-Cyclopropyl(2-(2,2,2-trifluoroethoxy)acetamido)methyl)imidazo[1,2-b]pyridazin-2-yl)(4,4-difluorocyclohexyl)methyl)-1-isopropyl-1H-pyrazole-5-carboxamide]: the figures for the IC50 in assay [1] and in assay [2] were 280 nM and 250 nM, respectively.
As for `Cc1nonc1C(=O)N[C@H](c1cn2ncc([C@H](NC(=O)COCC(F)F)C3CC3)cc2n1)C1CCC(F)(F)CC1` [Example 304, N—((S)-(7-((R)-Cyclopropyl(2-(2,2-difluoroethoxy)acetamido)methyl)imidazo[1,2-b]pyridazin-2-yl)(4,4-difluorocyclohexyl)methyl)-4-methyl-1,2,5-oxadiazole-3-carboxamide], the values for the IC50 in assay [1] and in assay [2] were 910 nM and 620 nM, respectively.
Take `CC(C)n1nccc1C(=O)N[C@H](c1cn2ncc([C@H](NC(=O)COCC(F)F)C3CC3)cc2n1)C1CCC(F)(F)CC1` [Example 305, N—((S)-(7-((R)-Cyclopropyl(2-(2,2-difluoroethoxy)acetamido)methyl)imidazo[1,2-b]pyridazin-2-yl)(4,4-difluorocyclohexyl)methyl)-1-isopropyl-1H-pyrazole-5-carboxamide]: the IC50 in assay [1] was found to be 1100 nM; in assay [2] it was 140 nM.
Turning to `Cc1nonc1C(=O)N[C@H](c1cn2ncc([C@H](NC(=O)COC3CC3)C3CC3)cc2n1)C1CCC(F)(F)CC1` [Example 306, N—((S)-(7-((R)-(2-Cyclopropoxyacetamido)(cyclopropyl)methyl)imidazo[1,2-b]pyridazin-2-yl)(4,4-difluorocyclohexyl)methyl)-4-methyl-1,2,5-oxadiazole-3-carboxamide], the IC50 in assay [1] is 1500 nM; in assay [2] it was 210 nM.
As for `CC(C)n1nccc1C(=O)N[C@H](c1cn2ncc([C@H](NC(=O)COC3CC3)C3CC3)cc2n1)C1CCC(F)(F)CC1` [Example 307, N—((S)-(7-((R)-(2-Cyclopropoxyacetamido)(cyclopropyl)methyl)imidazo[1,2-b]pyridazin-2-yl)(4,4-difluorocyclohexyl)methyl)-1-isopropyl-1H-pyrazole-5-carboxamide], the half-maximal inhibitory concentration (IC50) in assay [1] amounted to 420 nM; in assay [2] it was 110 nM.
Consider `Cc1nonc1C(=O)N[C@H](c1cn2ncc([C@H](NC(=O)COC3CC(F)(F)C3)C3CC3)cc2n1)C1CCC(F)(F)CC1` [Example 308, N—((S)-(7-((R)-Cyclopropyl(2-(3,3-difluorocyclobutoxy)acetamido)methyl)imidazo[1,2-b]pyridazin-2-yl)(4,4-difluorocyclohexyl)methyl)-4-methyl-1,2,5-oxadiazole-3-carboxamide], for which the IC50 in assay [1] is 1700 nM; in assay [2], 200 nM.

One may read the IC50 as the point on the concentration scale where inhibition reaches its midpoint. Read a low IC50 as higher potency.
